# Paper PMC12355554, “Development of novel mitochondrial pyruvate carrier inhibitors for breast cancer treatment” (The Journal of Biological Chemistry, 2025)
# Experiments:
# 4T1 tumor = experiment: Tumor efficacy study in a 4T1 syngraft; conditions: 5 mg/kg daily for 11 days
# 67NR = experiment: MTT cell proliferation inhibition assay, 67NR; type: cell-based, murine; conditions: Mus musculus, 72 h, 3 days, average ± SEM
# Experimental: Confluent cell cultures were treated with trypsin and resuspended at 5 × 10^4 cells/ml. To a 96-well plate, 100 μl of the 5 × 10^4 cells/ml solution were added and allowed to incubate at 37 °C, 5% CO2 for 24 h. Compounds were then added and allowed to incubate for 3 days. […] Following the 4-h incubation with 3-(4,5-dimethylthiazol-2-yl)-2,5-diphenyltetrazolium bromide, 100 μl of SDS (0.1 g/ml, 0.01 N HCl) was added, and 96-well plates were allowed to incubate for an additional 4 h. […] Treatment absorbances are taken as percentages of the average untreated absorbances and plotted against log(concentration) in GraphPad Prism 10 (GraphPad Software, Inc) to generate effective concentration values where 50% of the cells are not proliferating (EC50).
# [1] = molecular target: T1, mitochondrial pyruvate carrier (MPC) (Mus musculus, UniProt P63030+Q9D023); experiment: Seahorse XFe96 Pyr-driven respiration in rPFO-permeabilized 4T1 cells; type: cell-based, murine; conditions: read-out: IC50, inhibition of Pyr-driven respiration
# T1 construct: host or cells: 4T1 murine breast cancer cells, rPFO-permeabilized
# T1 sequence (P63030 1-109): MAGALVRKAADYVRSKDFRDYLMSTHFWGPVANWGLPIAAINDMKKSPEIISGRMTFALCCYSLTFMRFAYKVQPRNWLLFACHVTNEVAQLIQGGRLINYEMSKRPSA
# T1 sequence (Q9D023 1-127): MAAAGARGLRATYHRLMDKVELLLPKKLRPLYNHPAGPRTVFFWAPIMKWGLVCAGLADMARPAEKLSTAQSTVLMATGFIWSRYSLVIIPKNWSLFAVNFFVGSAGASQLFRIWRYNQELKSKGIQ
# Experimental: After validating the ability of rPFO to permeabilize 4T1 cells without damaging mitochondria, we sought to investigate the ability of candidate compounds to inhibit Pyr-driven respiration in these cells (Fig. 1, D–G). In this regard, 4T1 cells were seeded in Seahorse XFe96 well plates and were incubated to reach confluence (∼18–24 h) in growth media (+serum). Growth media were then aspirated, and cells were washed with MAS buffer to remove serum and endogenous metabolic substrates. Serum- and substrate-starved cells were then incubated for equilibration in MAS buffer in a non-CO2 incubator. Inhibitors, rPFO, and substrate milieus were prepared in MAS buffer to be injected in succession to allow for real-time observation of the effects of compound-treated cultures on oxygen consumption rates (OCRs) when compared with vehicle (dimethyl sulfoxide [DMSO])-treated cells. Equilibrated intact cells were allowed to establish basal respiratory rates, followed by the injection of candidate compounds C1 to C4 at varying dose-titrated concentrations, respectively, and acute decreases in OCR were observed (Fig. 1, D–G). Compound exposure was performed in intact cells to avoid influence of rPFO on acute cellular targets. Cells were then exposed to rPFO, followed by the carbonyl cyanide-p-trifluoromethoxyphenylhydrazone (FCCP)–stimulated Pyr substrate milieu, which consisted of Pyr, malate (Mal), and dichloroacetate (DCA) to fuel uninhibited Pyr respiratory flux and maximal respiration. Mal and DCA were included to allow for continuous TCA cycle function without acetyl CoA feedback–mediated inhibition (Mal) or Pyr dehydrogenase–regulated inhibition (DCA) of Pyr uptake. Here, we observed a dose-dependent inhibition of Pyr-driven respiration in cells treated with the candidate compounds, allowing for logarithmic dose–response curves to be generated, and 50% inhibitory concentrations (IC50) to be calculated (Fig. 1, D–G). Finally, complex I and […] were injected to halt respiration and end the assay. […] In this regard, the fluoro-aminocarboxycoumarin derivative C4 has been designated as the lead candidate for further investigation.
# Permeabilized cell assays were performed using rPFO as described previously. 4T1 cells were seeded (20,000 cells/well) onto Seahorse XFe96 well plates and incubated overnight in growth media at 37 °C and 5% CO2 for adherence. On the day of the assay, growth media were aspirated and replaced with MAS buffer (70 mM sucrose, 220 mM mannitol, 10 mM potassium phosphate monobasic, 5 mM magnesium chloride, 2 mM Hepes, and 1 mM EGTA) after 3X rinse of growth media to remove serum and endogenous metabolic substrates, and incubated at 37 °C in a non-CO2 incubator. Respective inhibitor and substrate milieu's were prepared in MAS buffer for port injections A–D at 8X, 9X, 10X, and 11X the target cell concentrations to account for intrinsic dilution factor of in situ injections of each port. […] Final substrate concentrations for specific tests were as follows: (5 mM Pyr , 0.5 mM Mal, 2 mM DCA; 10 mM glutamate, 0.5 mM Mal, 2 mM DCA; 10 mM succinate, 2 μM rotenone; 20 mM methyl Pyr, 5 mM Pyr, 0.5 mM Mal, and 2 mM DCA). ATP rate assays and mitochondrial stress tests were performed according to the manufacturer's (Agilent) instructions.
# [2] = molecular target: T1, mitochondrial pyruvate carrier (MPC); experiment: Methyl pyruvate reversal of inhibited Pyr-driven respiration; type: cell-based, murine; conditions: permeabilized 4T1 cells; 20 mM methyl Pyr
# From the text: Although our initial experiments and previous literature illustrate the ability of the candidate compounds to inhibit Pyr-driven respiration, we sought to investigate the ability of candidate compounds to inhibit respiration fueled by other metabolic substrates, glutamate and succinate (Fig. 2). Glutamate, similar to Pyr oxidation, results in NADH equivalents that fuel complex I-mediated respiration, and succinate metabolism offers FADH2 for electrons in complex II-driven respiratory processes. […] To further validate the mode of action of the candidate compounds, a series of similar Seahorse experiments were employed (Fig. 2, A–C). In these experiments, 4T1 cells were first permeabilized and were then offered metabolic substrates Pyr (Pyr/Mal; Fig. 2A), glutamate (Glu/Mal, Fig. 2B), or succinate (Fig. 2C), and the resulting OCR was observed. As described previously, Mal and DCA were included in the substrate milieu of glutamate respiration experiments. […] To validate that inhibition of Pyr respiration is due to mitochondrial Pyr uptake and not other Pyr-processing enzymes (i.e., Pyr dehydrogenase), a parallel experiment using methyl pyruvate (MePyr) was employed (Fig. 2, E and F). MePyr is permeable to the mitochondrial membranes, where in the matrix, mitochondrial esterase hydrolysis activity provides Pyr.
# Permeabilized cell assays were performed using rPFO as described previously. […]
compound,measurement,setting,value
"CN(Cc1ccc(C(F)(F)F)cc1)c1ccc2cc(C(=O)O)c(=O)oc2c1.NC(CO)(CO)CO [C5, 1,3-dihydroxy-2-(hydroxymethyl)propan-2-aminium 7-(methyl(4-(trifluoromethyl)benzyl)amino)-2-oxo-2H-chromene-3-carboxylate]",mouse body weight,4T1 tumor,remained constant
same,reduction in tumor mass compared with vehicle,4T1 tumor; BALB/c,~41%
same,reduction in tumor volume compared with vehicle,4T1 tumor; BALB/c,~20%
same,EC50,67NR,48 ± 4.3 µM
same,IC50,[1],0.0144 ± 0.0005 µM
same,reversal of Pyr-driven respiration effects by methyl pyruvate,[2],able to reverse
